assay: Drug uptake in human skin dermal layer administered topically after 6 hrs by LC-MS/MS analysis; format: ADME, tissue-based, Dermis; conditions: topical_or_ocular
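For logD in this document: lipophilicity determined by HPLC.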

Row | Drug uptake | Compound
1 | 0.43 µg | CC(=O)c1ccc(OCc2cc(C)ccn2)c(-c2ccc3c(c2)CCNCC3)c1
2 | 0.38 µg | COc1cccc(OCc2cc(C)ccn2)c1-c1ccc2c(c1)CCNCC2

assay: physchem; conditions: buffer, pH 7.4

Row | Compound | logD
3 | COc1cccc(-c2cc(C(C)=O)ccc2OCc2ccccn2)c1 | 5.4
4 | COc1cccc(OCc2cnccn2)c1-c1ccc2c(c1)CCNCC2 | 2.2
5 | CC(=O)c1ccc(OCc2ccccn2)c(-c2ccc3c(c2)CNCC3)c1 | 2.2
6 | COc1ccc(-c2cc(F)ccc2OCc2ccccn2)cc1 | 6.4
7 | CC(=O)c1ccc(OCc2ccccn2)c(-c2ccc3c(c2)CCNCC3)c1 | 2.3
8 | COc1ccc(-c2cc(C(C)=O)ccc2OCc2ccncn2)cc1 | 4.5
9 | COc1ccc(-c2nc(C)ccc2OCc2cc(C)ccn2)cc1 | 5.4
10 | CCOc1ccnc(COc2ccc(C(C)=O)cc2-c2ccc3c(c2)CCNCC3)c1 | 2.7
11 | COc1ccc(-c2nc(C)ccc2OCc2cccc(C)n2)cc1 | 5.5
12 | CC(=O)c1ccc(OCc2ccccn2)c(-c2ccc(CN)cc2)c1 | 1.9
13 | CC(=O)c1ccc(OCc2cc(C)ccn2)c(-c2ccc3c(c2)CCNCC3)c1 | 2.5
14 | CC(=O)c1ccc(OCc2ccccn2)c(-c2cccc(C)c2)c1 | 6
15 | COc1ccc(-c2ccc(F)cc2OCc2ccccn2)cc1 | 6.6
16 | COc1ccc(-c2cc(C(C)=O)ccc2OCc2cccnn2)cc1 | 4.1
17 | COc1ccc(-c2nc(C)ccc2OCc2ncccc2C)cc1 | 5.3
18 | COc1ccc(-c2ccc3c(c2)CCNCC3)c(OCc2cc(C)ccn2)c1 | 3
19 | CC(=O)c1ccc(OCc2ccccn2)c(-c2ccc3c(c2)CNCCC3)c1 | 2.3
20 | CC(=O)c1ccc(OCc2ccccn2)c(-c2ccc3c(c2)CNC3)c1 | 2.1
21 | COc1ccc(-c2c(C)cccc2OCc2ccccn2)cc1 | 6.7
22 | CC(=O)c1ccc(OCc2ccccn2)c(-c2ccc(F)cc2)c1 | 5.6
23 | COc1cccc(OCc2cc(C)ccn2)c1-c1ccc2c(c1)CCNCC2 | 3.1
24 | COc1ccc(-c2c(F)cccc2OCc2ccccn2)cc1 | 6.2
25 | CC(=O)c1ccc(OCc2ccccn2)c(-c2ccc3c(c2)CCCNC3)c1 | 2.3
26 | Cc1ccc(-c2ccccc2OCc2ccccn2)cc1 | 7

Continued, values first:

Row | logD | Compound
27 | 4.5 | COc1ccc(-c2cc(C(C)=O)ccc2OCc2ncccn2)cc1
28 | 2.1 | CC(=O)c1ccc(OCc2ccccn2)c(-c2ccc(CCN)cc2)c1
29 | 5 | COc1ccc(-c2nc(C)ccc2OCc2ccccn2)cc1
30 | 5.5 | COc1ccc(-c2nc(C)ccc2OCc2ccc(C)cn2)cc1
31 | 6.8 | COc1ccc(-c2cc(C)ccc2OCc2ccccn2)cc1
32 | 3 | COc1ccc(OCc2cc(C)ccn2)c(-c2ccc3c(c2)CCNCC3)c1
33 | 6 | COc1ccc(-c2cc(OC)ccc2OCc2ccccn2)cc1
34 | 2.1 | CC(=O)c1ccc(OCc2ccccn2)c(-c2ccc3c(c2)CCNC3)c1
35 | 2.8 | CCc1ccnc(COc2ccc(C(C)=O)cc2-c2ccc3c(c2)CCNCC3)c1
36 | 5.3 | COc1ccc(-c2cc(C(C)=O)ccc2OCc2ccccn2)cc1
37 | 1.9 | CNC(=O)c1ccc(OCc2cc(C)ccn2)c(-c2ccc3c(c2)CCNCC3)c1
38 | 6.2 | COc1ccc(-c2ccc(OC)cc2OCc2ccccn2)cc1
39 | 6.2 | COc1ccc(-c2ccccc2OCc2ccccn2)cc1
40 | 4.9 | Cc1ccc(-c2ncccc2OCc2ccccn2)cc1
41 | 4.7 | COc1ccc(-c2cc(C(C)=O)ccc2OCc2cnccn2)cc1
42 | 6.1 | CC(=O)c1ccc(OCc2ccccn2)c(-c2ccc(C)cc2)c1
43 | 5.8 | COc1ccc(-c2c(OC)cccc2OCc2ccccn2)cc1
44 | 2.8 | Cc1ccnc(COc2ccc(C#N)cc2-c2ccc3c(c2)CCNCC3)c1
45 | 5 | CC(=O)c1ccc(OCc2ccccn2)c(-c2ccccc2)c1

assay: Apparent permeability of the compound after 3 hrs by PAMPA; format: ADME; conditions: not given

Row | Papp at 3 h | Compound
46 | 33 ×10⁻⁶ cm/s | COc1ccc(-c2nc(C)ccc2OCc2cc(C)ccn2)cc1
47 | 43.5 ×10⁻⁶ cm/s | Cc1ccnc(COc2ccc(C)nc2-c2ccc3c(c2)CCNCC3)c1

assay: Drug uptake in human skin epidermal layer administered topically after 6 hrs by LC-MS/MS analysis; format: ADME, tissue-based, Skin epidermis; conditions: topical_or_ocular

Row | Drug uptake | Compound
48 | 5.52 µg | CC(=O)c1ccc(OCc2cc(C)ccn2)c(-c2ccc3c(c2)CCNCC3)c1
49 | 9.34 µg | COc1cccc(OCc2cc(C)ccn2)c1-c1ccc2c(c1)CCNCC2

— ChEMBL document CHEMBL4265956, “Discovery of potent and selective Spleen Tyrosine Kinase inhibitors for the topical treatment of inflammatory skin disease” (Bioorg Med Chem Lett, 2018)
